Reference: US6046043A, “Method for the conversion of carbonyl compounds to their β-unsaturated derivatives using molecular oxygen as the oxidant” (The Regents of the University of Michigan, priority 1998, dated 2000)
One block for each compound: values may come before it.

Tests used:
[1] = biological target: T1, Old Yellow Enzyme (Saccharomyces pastorianus, UniProt Q02899); experiment: p-Cl-phenol binding to native Old Yellow Enzyme (charge transfer complex); set-up: species or system Brewer's Bottom Yeast
T1 construct: recombinant OYE I (pET-3b, E. coli) or enzyme isolated from brewer's bottom yeast (mix of close OYE isoforms)
Description: The apoprotein of Old Yellow Enzyme was prepared and reconstituted with 8-CN-8-demethyl-flavin mononucleotide as described above. […] Native enzyme binds p-Cl-phenol with a Kd of~1 μM and has a maximum of 645 nm for the charge transfer absorption band. The 115 nm blue shift thus falls in line with the 170 mV more positive potential compared to that of the native flavin.

[2] = biological target: T2, 8-CN-FMN-OYE (Saccharomyces pastorianus, UniProt Q02899); experiment: Oxidation of saturated carbonyl substrates by the catalyst with molecular oxygen (GC/MS); format: biochemical
T2 construct: made in house; host or cells: Escherichia coli (plasmid pET-3b)
Description: Two ml of 10 mM solution of hydrocinnamaldehyde (C6 H5 --CH2 --CH2 --CHO) in 100 mM sodium pyrophosphate buffer, pH 8.5 was taken in a 5 ml test tube with a small magnetic stir bar at room temperature. The catalyst, as a concentrated solution in the same buffer, was added to the above solution so that final concentration of the catalyst is 10 μM. […]
When and wherever side reactions were observed due to hydrogen peroxide (which is produced during the oxidation), 5 μl of catalase (1 mg/ml) was added to the reaction mixture prior to the addition of the catalyst as a hydrogen peroxide scavenger.
The racemic 3-phenyl-butyraldehyde was subjected to typical oxidation reaction with the catalytic system of the present invention. […] It can be concluded, in analogy to the 3-Me-cyclopentanone reaction, that the oxidation of S-enantiomer only catalyzed by the catalyst leaving the R-enantiomer intact as hydrogen at the asymmetric center lies in unfavorable geometry. This reaction once again highlights the potential of the present catalytic system in resolving racemic carbonyl compounds.

[3] = Redox potential of flavin cofactor; format: physicochemical

T2 sequence (Q02899 whole entry): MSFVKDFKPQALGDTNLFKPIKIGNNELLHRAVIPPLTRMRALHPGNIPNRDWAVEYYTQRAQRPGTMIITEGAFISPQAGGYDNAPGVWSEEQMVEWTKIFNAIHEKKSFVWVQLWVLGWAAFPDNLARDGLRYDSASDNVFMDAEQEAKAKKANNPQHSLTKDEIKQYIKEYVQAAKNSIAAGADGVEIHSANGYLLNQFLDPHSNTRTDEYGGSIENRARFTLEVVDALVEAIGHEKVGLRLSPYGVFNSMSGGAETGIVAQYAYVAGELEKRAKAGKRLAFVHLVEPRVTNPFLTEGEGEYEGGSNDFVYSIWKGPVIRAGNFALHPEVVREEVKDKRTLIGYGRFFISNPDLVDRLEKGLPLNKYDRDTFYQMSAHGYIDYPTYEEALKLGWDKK
T1 sequence (Q02899 2-400): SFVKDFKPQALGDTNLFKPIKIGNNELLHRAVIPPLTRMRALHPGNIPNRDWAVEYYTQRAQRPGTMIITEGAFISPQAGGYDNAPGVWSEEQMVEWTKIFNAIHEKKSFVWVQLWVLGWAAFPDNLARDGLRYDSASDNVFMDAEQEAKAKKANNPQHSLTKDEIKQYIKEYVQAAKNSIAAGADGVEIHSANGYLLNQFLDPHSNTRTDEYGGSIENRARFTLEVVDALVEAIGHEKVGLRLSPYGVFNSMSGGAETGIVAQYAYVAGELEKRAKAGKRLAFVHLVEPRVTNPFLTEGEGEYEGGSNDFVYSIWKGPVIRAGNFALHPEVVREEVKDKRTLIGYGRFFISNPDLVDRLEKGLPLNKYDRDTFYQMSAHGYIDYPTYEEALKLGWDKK

SMILES: Oc1ccc(Cl)cc1 [p-Cl-phenol]
- Kd [1]: ~1000 nM

SMILES: O=CCCc1ccccc1 [hydrocinnamaldehyde]
- conversion of the substrate to cinnamaldehyde ([2]; 10 mM substrate, 10 μM catalyst, pH 8.5, room temperature, 3 hours, GC/mass spectral analysis): complete conversion

- substrate reacted ([2]; racemic substrate, 36 hours-48 hours, GC/MS): ~ 50%
SMILES: CC(CC=O)c1ccccc1 (racemic) [3-phenyl-butyraldehyde]

- redox potential [3]: -38 mV
- redox potential positive to the native cofactor, FMN ([3]; difference versus FMN): about 170 mV
SMILES: Cc1cc2nc3c(=O)[nH]c(=O)nc-3n(C[C@H](O)[C@H](O)[C@H](O)COP(=O)(O)O)c2cc1C#N [8-CN-FMN, 8-CN-8-demethyl-flavin mononucleotide]
